Assay results reported in patent publication US8269000B2, “Substituted pyrimidine and triazine compounds” (Gruenenthal GmbH, priority 2008, dated 2012).

Tests used:
human B1R = target: T1, human B1R (Homo sapiens, UniProt P46663); test: FLIPR Ca2+ functional study on bradykinin receptor 1 (hB1R CHO K1 cells); assay type: cell-based; settings: % inhibition human B1R at 10 μM; for inhibition at 10 µM: read-out: % inh. (hum. B1R) 10 μM
T1 construct: expressed in transfected cells; host or cells: CHO K1 cells
T1 sequence (P46663 1-353): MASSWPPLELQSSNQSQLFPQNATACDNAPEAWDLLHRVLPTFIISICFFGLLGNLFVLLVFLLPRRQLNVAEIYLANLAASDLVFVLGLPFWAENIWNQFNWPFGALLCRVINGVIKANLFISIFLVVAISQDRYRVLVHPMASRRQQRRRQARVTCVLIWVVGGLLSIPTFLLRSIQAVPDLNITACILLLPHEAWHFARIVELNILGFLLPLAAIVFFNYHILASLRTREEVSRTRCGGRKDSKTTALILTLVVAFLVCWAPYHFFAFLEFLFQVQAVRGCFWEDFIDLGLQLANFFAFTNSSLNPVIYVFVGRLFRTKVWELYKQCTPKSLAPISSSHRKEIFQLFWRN
How it was run: (§1)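 CHO K1 cells stably expressing human or rat B1R were loaded with Fluo-4 and read on FLIPR (ex 488/em 540 nm, peak counts). Test compound (10 μM, or a concentration range for IC50) was added first for % activation versus control agonist; after 10-20 min, EC80 Lys-Des-Arg9-bradykinin (human) or Des-Arg9-bradykinin (rat) was added, giving % inhibition of maximum. n=2-3, N≥2.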

rat B1R = target: T2, rat B1R (Rattus norvegicus, UniProt P97583); test: FLIPR Ca2+ functional study on bradykinin receptor 1 (rB1R CHO K1 cells); assay type: cell-based; settings: for inhibition at 10 µM: CHO-K1, % inhibition rat B1R at 10 μM, read-out: % inh. (rat B1R) 10 μM; for % inh. (rat B1R) 10 μM: % inhibition rat B1R at 10 μM
T2 construct: expressed in transfected cells; host or cells: CHO K1 cells
T2 sequence (P97583 1-337): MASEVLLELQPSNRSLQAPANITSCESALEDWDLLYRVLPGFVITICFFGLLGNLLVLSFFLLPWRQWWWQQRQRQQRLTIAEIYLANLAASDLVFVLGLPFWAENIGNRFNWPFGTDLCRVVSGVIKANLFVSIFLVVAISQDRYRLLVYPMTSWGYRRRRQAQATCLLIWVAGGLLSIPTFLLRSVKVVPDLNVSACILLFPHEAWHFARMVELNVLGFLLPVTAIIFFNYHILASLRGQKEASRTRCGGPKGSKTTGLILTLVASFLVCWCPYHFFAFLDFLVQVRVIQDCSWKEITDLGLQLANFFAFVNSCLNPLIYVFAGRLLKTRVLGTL
How it was run: as §1

Structure (SMILES)	inhibition at 10 µM (human B1R) [%]	inhibition at 10 µM (rat B1R) [%]	% inh. (hum. B1R) 10 μM (human B1R) [%]	% inh. (rat B1R) 10 μM (rat B1R) [%]
COc1cc(C)c(S(=O)(=O)N2CCCCC2COc2nccc(N(C)CCN3CCC(c4ccccc4)(N(C)C)CC3)n2)c(C)c1 (stereo not shown) [G_CC-004, N-[2-(4-dimethylamino-4-phenyl-1-piperidinyl)ethyl]-2-[[1-(4-methoxy-2,6-dimethylphenyl)sulfonyl-2-piperidinyl]methoxy]-N-methyl-4-pyrimidineamine]	100	100	–	–
COc1cc(C)c(S(=O)(=O)N2CCC[C@H]2COc2nccc(N3CCC(O)(c4cccs4)CC3)n2)c(C)c1 [G_CC-021, 1-[2-[[(2S)-1-(4-methoxy-2,6-dimethylphenyl)sulfonyl-2-pyrrolidinyl]methoxy]-4-pyrimidinyl]-4-(2-thienyl)-4-piperidinol]	36	105	–	–
COc1cc(C)c(S(=O)(=O)N2CCC[C@H]2COc2nccc(N3CCC4(CCN(Cc5ccccc5)C4)C3)n2)c(C)c1 (stereo partly drawn) [G_CC-032, 3-benzyl-7-[2-[[(2S)-1-(4-methoxy-2,6-dimethylphenyl)sulfonyl-2-pyrrolidinyl]methoxy]-4-pyrimidinyl]-3,7-diazaspiro[4.4]nonane]	86	105	–	–
COc1cc(C)c(S(=O)(=O)N2CCC[C@H]2COc2nccc(N3CCC4(CC3)C(=O)NCN4c3ccccc3)n2)c(C)c1 [G_CC-035, 8-[2-[[(2S)-1-(4-methoxy-2,6-dimethylphenyl)sulfonyl-2-pyrrolidinyl]methoxy]-4-pyrimidinyl]-4-phenyl-2,4,8-triazaspiro[4.5]decan-1-one]	-1	99	–	–
COc1cc(C)c(S(=O)(=O)N2CCCC(Oc3nccc(N4CCC5(CCN(c6ccncc6)CC5)CC4)n3)C2)c(C)c1 (stereo not shown) [G_CC-041, 9-[2-[[1-(4-methoxy-2,6-dimethylphenyl)sulfonyl-3-piperidinyl]oxy]-4-pyrimidinyl]-3-(4-pyridyl)-3,9-diazaspiro[5.5]undecane]	96	101	–	–
COc1cc(C)c(S(=O)(=O)N(C)CCOc2nccc(N3CCC4(CCN(c5ccncc5)CC4)CC3)n2)c(C)c1 [G_CC-047, 4-methoxy-N,2,6-trimethyl-N-[2-[[4-[3-(4-pyridyl)-3,9-diazaspiro[5.5]undecan-9-yl]-2-pyrimidinyl]oxy]ethyl]benzenesulfonamide]	100	99	–	–
COc1cc(C)c(S(=O)(=O)N2CCC[C@H]2COc2nccc(N3CCC4(CC3)CCN(c3ccc(F)cc3)C4=O)n2)c(C)c1 [G_CC-048, 3-(4-fluorophenyl)-8-[2-[[(2S)-1-(4-methoxy-2,6-dimethylphenyl)sulfonyl-2-pyrrolidinyl]methoxy]-4-pyrimidinyl]-3,8-diazaspiro[4.5]decan-4-one]	28	96	–	–
COc1cc(C)c(S(=O)(=O)N2CCC[C@H]2COc2nccc(N3CCC4(CCN(Cc5ccc(F)cc5)C4=O)CC3)n2)c(C)c1 [G_CC-051, 3-[(4-fluorophenyl)methyl]-8-[2-[[(2S)-1-(4-methoxy-2,6-dimethylphenyl)sulfonyl-2-pyrrolidinyl]methoxy]-4-pyrimidinyl]-3,8-diazaspiro[4.5]decan-4-one]	38	98	–	–
COc1cc(C)c(S(=O)(=O)N(C)C(COc2nccc(N3CCC4(CCN(Cc5ccc(F)cc5)C4=O)CC3)n2)c2ccccc2)c(C)c1 (stereo not shown) [G_CC-060, N-[2-[[4-[3-[(4-fluorophenyl)methyl]-4-oxo-3,8-diazaspiro[4.5]decan-8-yl]-2-pyrimidinyl]oxy]-1-phenylethyl]-4-methoxy-N,2,6-trimethylbenzenesulfonamide]	17	88	–	–
COc1cc(C)c(S(=O)(=O)N(C)C(COc2nccc(N3CCC(Oc4ccncc4)CC3)n2)c2ccccc2)c(C)c1 (stereo not shown) [G_CC-063, 4-methoxy-N,2,6-trimethyl-N-[1-phenyl-2-[[4-[4-(4-pyridyloxy)-1-piperidinyl]-2-pyrimidinyl]oxy]ethyl]benzenesulfonamide]	28	101	–	–
COc1cc(C)c(S(=O)(=O)N(C)CCOc2ccnc(N3CCC4(CCN(c5ccncc5)CC4)CC3)n2)c(C)c1 [H_CC-029, 4-methoxy-N,2,6-trimethyl-N-[2-[[2-[3-(4-pyridyl)-3,9-diazaspiro[5.5]undecan-9-yl]-4-pyrimidinyl]oxy]ethyl]benzenesulfonamide]	92	101	–	–

More lines, now with the values ahead:

inhibition at 10 µM (human B1R) [%]	inhibition at 10 µM (rat B1R) [%]	% inh. (hum. B1R) 10 μM (human B1R) [%]	% inh. (rat B1R) 10 μM (rat B1R) [%]	Structure (SMILES)
100	102	–	–	COc1cc(C)c(S(=O)(=O)N2CCCCC2COc2nccc(N3CCC(CCN4CCCC4)CC3)n2)c(C)c1 (stereo not shown) [G_CC-003, 2-[[1-(4-methoxy-2,6-dimethylphenyl)sulfonyl-2-piperidinyl]methoxy]-4-[4-(2-1-pyrrolidinylethyl)-1-piperidinyl]pyrimidine]
91	96	–	–	COc1cc(C)c(S(=O)(=O)N2CCCCC2COc2nccc(N3CCC(N4CCN(C)CC4)CC3)n2)c(C)c1 (stereo not shown) [G_CC-011, 2-[[1-(4-methoxy-2,6-dimethylphenyl)sulfonyl-2-piperidinyl]methoxy]-4-[4-(4-methyl-1-piperazinyl)-1-piperidinyl]pyrimidine]
100	102	–	–	COc1cc(C)c(S(=O)(=O)N2CCCCC2COc2nccc(N3CCN(c4ccncc4)CC3)n2)c(C)c1 (stereo not shown) [G_CC-013, 2-[[1-(4-methoxy-2,6-dimethylphenyl)sulfonyl-2-piperidinyl]methoxy]-4-[4-(4-pyridyl)-1-piperazinyl]pyrimidine]
94	105	–	–	COc1cc(C)c(S(=O)(=O)N2CCCCC2COc2nccc(N3CCN(CC4CCN(C)CC4)CC3)n2)c(C)c1 (stereo not shown) [G_CC-014, 2-[[1-(4-methoxy-2,6-dimethylphenyl)sulfonyl-2-piperidinyl]methoxy]-4-[4-[(1-methyl-4-piperidinyl)methyl]-1-piperazinyl]pyrimidine]
96	100	–	–	COc1cc(C)c(S(=O)(=O)N2CCC[C@H]2COc2nccc(N3CCC(CCN4CCCC4)CC3)n2)c(C)c1 [G_CC-016, 2-[[(2S)-1-(4-methoxy-2,6-dimethylphenyl)sulfonyl-2-pyrrolidinyl]methoxy]-4-[4-(2-1-pyrrolidinylethyl)-1-piperidinyl]pyrimidine]
100	104	–	–	COc1cc(C)c(S(=O)(=O)N2CCC[C@H]2COc2nccc(N3CCN(c4ccncc4)CC3)n2)c(C)c1 [G_CC-019, 2-[[(2S)-1-(4-methoxy-2,6-dimethylphenyl)sulfonyl-2-pyrrolidinyl]methoxy]-4-[4-(4-pyridyl)-1-piperazinyl]pyrimidine]
–	–	97	100	COc1cc(C)c(S(=O)(=O)N2CCCCC2COc2nccc(N3CCC(CCN4CCCCC4)CC3)n2)c(C)c1 (stereo not shown) [G_CC-026]
75	102	–	–	COc1cc(C)c(S(=O)(=O)N2CCC[C@H]2COc2nccc(N3CCN(C4CCN(C)CC4)CC3)n2)c(C)c1 [G_CC-036, 2-[[(2S)-1-(4-methoxy-2,6-dimethylphenyl)sulfonyl-2-pyrrolidinyl]methoxy]-4-[4-(1-methyl-4-piperidinyl)-1-piperazinyl]pyrimidine]
58	99	–	–	COc1cc(C)c(S(=O)(=O)N2CCCCC2COc2nccc(N3CCC4(CCN(Cc5ccc(F)cc5)C4=O)CC3)n2)c(C)c1 (stereo not shown) [G_CC-039, 3-[(4-fluorophenyl)methyl]-8-[2-[[1-(4-methoxy-2,6-dimethylphenyl)sulfonyl-2-piperidinyl]methoxy]-4-pyrimidinyl]-3,8-diazaspiro[4.5]decan-4-one]
57	99	–	–	COc1cc(C)c(S(=O)(=O)N2CCCCC2COc2nccc(N3CCC4(CCN(Cc5ccccc5)C4=O)CC3)n2)c(C)c1 (stereo not shown) [G_CC-040, 3-benzyl-8-[2-[[1-(4-methoxy-2,6-dimethylphenyl)sulfonyl-2-piperidinyl]methoxy]-4-pyrimidinyl]-3,8-diazaspiro[4.5]decan-4-one]
–	–	74	99	COc1cc(C)c(S(=O)(=O)N2CCC[C@H]2COc2nccc(N3CCC(Oc4ccncc4)CC3)n2)c(C)c1 [G_CC-052, 2-[[(2S)-1-(4-methoxy-2,6-dimethylphenyl)sulfonyl-2-pyrrlidinyl]methoxy]-4-[4-(4-pyridyloxy)-1-piperidinyl]pyrimidine]
97	101	–	–	COc1cc(C)c(S(=O)(=O)N2CCC[C@H]2COc2nccc(N3CCC4(CCN(c5ccncc5)CC4)CC3)n2)c(C)c1 [G_CC-055, 9-[2-[[(2S)-1-(4-methoxy-2,6-dimethylphenyl)sulfonyl-2-pyrrolidinyl)methoxy]-4-pyrimidinyl]-3-(4-pyridyl)-3,9-diazaspiro[5.5]undecane]
